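1) Cells in 96-well plates. 2) Compound, 48 h, 5 concentrations. 3) Linear interpolation between surrounding doses. 4) Unreached endpoint = highest concentration. GI50: concentration for 50% inhibition of growth.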 The source made the active and inactive calls. Rule as the data show it: active = GI50 up to about 1.1 µM and inactive = higher.
Experiments:
Assay in all cases: NCI anticancer screen, dose series, 48 h
[1] = tested on: SK-MEL-5
[2] = tested on: NCI-H522
[3] = tested on: MCF7
[4] = tested on: NCI-H23
[5] = tested on: TK-10
[6] = tested on: HCT-15
[7] = tested on: 786-0
[8] = tested on: OVCAR-5
[9] = tested on: LOX IMVI
[10] = tested on: UACC-257
[11] = tested on: SK-OV-3
[12] = tested on: MOLT-4
[13] = tested on: MDA-MB-435
[14] = tested on: OVCAR-4
[15] = tested on: U-251
[16] = tested on: RPMI-8226
[17] = tested on: T47D
[18] = tested on: HL-60
[19] = tested on: SR

SMILES	GI50 [1]	GI50 [2]	GI50 [3]	GI50 [4]	GI50 [5]	GI50 [6] [µM]	GI50 [7]	GI50 [8]	GI50 [9]	GI50 [10]	GI50 [11]	GI50 [12]	GI50 [13]	GI50 [14]	GI50 [15]	GI50 [16]	GI50 [17]	GI50 [18]	GI50 [19]
Cc1cs/c(=N/c2ccccc2)n1CCC(O)(P(=O)(O)O)P(=O)(O)O	71.6 µM (inactive)	> 100 µM (inactive)	> 100 µM (inactive)	> 100 µM (inactive)	> 100 µM (inactive)	63.1	> 100 µM (inactive)	> 100 µM (inactive)	> 100 µM (inactive)	> 100 µM (inactive)	> 100 µM (inactive)	–	–	–	–	–	–	–	–
CCOC(=O)[C@@H]1[C@@H](c2ccccc2)N(C)O[C@@]1(c1ccccc1)C(F)(F)F	27 µM (inactive)	39.9 µM (inactive)	–	59.6 µM (inactive)	> 100 µM (inactive)	40.1	> 100 µM (inactive)	> 100 µM (inactive)	70.5 µM (inactive)	55 µM (inactive)	43.7 µM (inactive)	> 10 µM (inactive)	28.4 µM (inactive)	77.3 µM (inactive)	50.4 µM (inactive)	20.7 µM (inactive)	67.9 µM (inactive)	–	–
O=P(O)(O)c1ccccc1Oc1ccccc1	> 100 µM (inactive)	> 100 µM (inactive)	> 100 µM (inactive)	> 100 µM (inactive)	> 100 µM (inactive)	> 100	> 100 µM (inactive)	> 100 µM (inactive)	> 100 µM (inactive)	> 100 µM (inactive)	> 100 µM (inactive)	> 100 µM (inactive)	> 100 µM (inactive)	–	> 100 µM (inactive)	> 100 µM (inactive)	–	> 100 µM (inactive)	–
C/C(O[Si](C(C)C)(C(C)C)C(C)C)=C(\C)C(=O)N(C)c1ccccc1Cl	> 100 µM (inactive)	73.8 µM (inactive)	–	> 100 µM (inactive)	> 100 µM (inactive)	> 100	> 100 µM (inactive)	> 100 µM (inactive)	> 100 µM (inactive)	> 100 µM (inactive)	–	> 100 µM (inactive)	> 100 µM (inactive)	> 100 µM (inactive)	> 100 µM (inactive)	> 100 µM (inactive)	> 100 µM (inactive)	–	–
c1ccc([B-]2(c3ccccc3)OCCc3cccc[n+]32)cc1	41.2 µM (inactive)	49.1 µM (inactive)	–	48.8 µM (inactive)	54.3 µM (inactive)	44.5	70.1 µM (inactive)	> 100 µM (inactive)	97.3 µM (inactive)	80.7 µM (inactive)	74.8 µM (inactive)	56.2 µM (inactive)	33.3 µM (inactive)	82.4 µM (inactive)	> 100 µM (inactive)	65.3 µM (inactive)	41 µM (inactive)	40.8 µM (inactive)	22.8 µM (inactive)
c1ccc(-c2csc3c2-n2cccc2C3N2CCCC2)cc1 (stereo not given)	4.84 µM (inactive)	13.3 µM (inactive)	30.5 µM (inactive)	20.9 µM (inactive)	27 µM (inactive)	93.8	58.1 µM (inactive)	20.2 µM (inactive)	40.7 µM (inactive)	7.36 µM (inactive)	–	42.3 µM (inactive)	33.7 µM (inactive)	34.4 µM (inactive)	11.1 µM (inactive)	20.8 µM (inactive)	–	23.5 µM (inactive)	57.7 µM (inactive)
O=C1CC[C@@]2(O)[C@H]3Cc4ccc(-c5cccc(O)c5)c5c4[C@@]2(CCN3CC2CC2)[C@H]1O5	16.3 µM (inactive)	16.1 µM (inactive)	16.9 µM (inactive)	27 µM (inactive)	1.01 µM (active)	23.9	18.2 µM (inactive)	13.6 µM (inactive)	12.9 µM (inactive)	1.01 µM (active)	–	22.9 µM (inactive)	14 µM (inactive)	23.3 µM (inactive)	8.38 µM (inactive)	23.3 µM (inactive)	–	0.0553 µM (active)	26.3 µM (inactive)
CC(C)(Cl)C(Br)CCC(C)(Br)C(Br)CBr (stereo not given)	14.6 µM (inactive)	13 µM (inactive)	–	19.5 µM (inactive)	27.5 µM (inactive)	17.1	17.4 µM (inactive)	15.7 µM (inactive)	–	18.7 µM (inactive)	29.1 µM (inactive)	19.6 µM (inactive)	17.8 µM (inactive)	18.7 µM (inactive)	16.5 µM (inactive)	19.2 µM (inactive)	18.7 µM (inactive)	17 µM (inactive)	–
CCOP(=O)(OCC)C(c1ccccc1)N(C(=O)NC(F)(F)F)c1cccc(F)c1 (stereo not given)	> 100 µM (inactive)	> 100 µM (inactive)	> 100 µM (inactive)	> 100 µM (inactive)	> 100 µM (inactive)	81.5	> 100 µM (inactive)	> 10 µM (inactive)	> 100 µM (inactive)	> 100 µM (inactive)	–	81.1 µM (inactive)	> 100 µM (inactive)	–	> 100 µM (inactive)	83.2 µM (inactive)	–	> 100 µM (inactive)	> 100 µM (inactive)
OC(c1ccccc1)(c1ccccc1)c1cccnc1	> 100 µM (inactive)	–	–	> 100 µM (inactive)	> 100 µM (inactive)	> 100	> 100 µM (inactive)	> 100 µM (inactive)	> 100 µM (inactive)	> 100 µM (inactive)	> 100 µM (inactive)	–	–	> 100 µM (inactive)	> 100 µM (inactive)	> 100 µM (inactive)	–	–	–
Cc1cn(C2CC(N(O)C(N)=O)C(CO)O2)c(=O)[nH]c1=O (stereo not given)	> 100 µM (inactive)	> 100 µM (inactive)	> 100 µM (inactive)	> 100 µM (inactive)	> 100 µM (inactive)	> 100	> 100 µM (inactive)	> 100 µM (inactive)	–	–	> 100 µM (inactive)	> 100 µM (inactive)	> 100 µM (inactive)	> 100 µM (inactive)	> 100 µM (inactive)	> 100 µM (inactive)	> 100 µM (inactive)	–	–
CC(C)(C)CNCCCNc1ccc(Cl)cc1	–	24.1 µM (inactive)	11.9 µM (inactive)	> 100 µM (inactive)	19.7 µM (inactive)	93.1	82.2 µM (inactive)	51.8 µM (inactive)	25.3 µM (inactive)	22.8 µM (inactive)	> 100 µM (inactive)	3.33 µM (inactive)	30.1 µM (inactive)	60.8 µM (inactive)	> 100 µM (inactive)	21.2 µM (inactive)	–	< 0.01 µM (active)	5.41 µM (inactive)
CCN1c2nc3ccccc3nc2N(CC)c2nc3ccccc3nc21	41.2 µM (inactive)	49.5 µM (inactive)	96.4 µM (inactive)	49.1 µM (inactive)	52.6 µM (inactive)	34.1	46.1 µM (inactive)	> 100 µM (inactive)	> 100 µM (inactive)	> 10 µM (inactive)	> 100 µM (inactive)	41.8 µM (inactive)	42.3 µM (inactive)	–	48 µM (inactive)	34.5 µM (inactive)	–	34.7 µM (inactive)	12.8 µM (inactive)
O=c1[nH]c(=O)n(COCc2ccccc2)c2ccc([N+](=O)[O-])cc12	> 100 µM (inactive)	–	> 100 µM (inactive)	–	> 100 µM (inactive)	> 100	80 µM (inactive)	> 100 µM (inactive)	> 100 µM (inactive)	> 100 µM (inactive)	> 100 µM (inactive)	> 100 µM (inactive)	> 100 µM (inactive)	56.5 µM (inactive)	> 100 µM (inactive)	–	–	> 100 µM (inactive)	> 100 µM (inactive)
O=C(CC1(O)C(=O)Nc2c(Cl)cc(Cl)cc21)c1ccc(Br)cc1Br (stereo not given)	7.4 µM (inactive)	2.89 µM (inactive)	13.2 µM (inactive)	8.26 µM (inactive)	18.1 µM (inactive)	8.57	11.3 µM (inactive)	17.7 µM (inactive)	5.19 µM (inactive)	10.7 µM (inactive)	21.5 µM (inactive)	1.32 µM (inactive)	12.8 µM (inactive)	12.2 µM (inactive)	13.1 µM (inactive)	2.75 µM (inactive)	–	1.04 µM (active)	1.56 µM (inactive)
COc1cc(OCc2ccccc2)c2c(CCC(=O)O)cc(=O)oc2c1.COc1cc(OCc2ccccc2)cc2oc(=O)cc(CCC(=O)O)c12	70.6 µM (inactive)	42.5 µM (inactive)	2.59 µM (inactive)	33.9 µM (inactive)	31.6 µM (inactive)	27	92.5 µM (inactive)	> 100 µM (inactive)	20.9 µM (inactive)	> 100 µM (inactive)	82.4 µM (inactive)	28.1 µM (inactive)	61.7 µM (inactive)	47.6 µM (inactive)	55 µM (inactive)	57.3 µM (inactive)	–	34.1 µM (inactive)	38.9 µM (inactive)
O=S1(=O)OCCOS(=O)(=O)C1S(=O)(=O)c1ccc2ccccc2c1	> 100 µM (inactive)	–	> 100 µM (inactive)	> 100 µM (inactive)	> 100 µM (inactive)	> 100	> 100 µM (inactive)	> 100 µM (inactive)	> 100 µM (inactive)	> 100 µM (inactive)	–	> 100 µM (inactive)	> 100 µM (inactive)	> 100 µM (inactive)	> 100 µM (inactive)	> 100 µM (inactive)	–	> 100 µM (inactive)	> 100 µM (inactive)

Reference: ChEMBL document CHEMBL1201862, “PubChem BioAssay data set” (2004)
